Where two headings read alike, the source gives them in different places. One block for each molecule: values may come before it.
Legend:
TAFIa [1] = molecular target: T1, TAFIa (Homo sapiens, UniProt Q96IY4); test: TAFIa inhibition (Actichrome plasma TAFI Activity Kit, 15 minutes pre-incubation); format: biochemical; details: 15 minutes pre-incubation at room temperature
T1 construct: purchased American Diagnostica 874TAFIA
T1 sequence (Q96IY4 115-423): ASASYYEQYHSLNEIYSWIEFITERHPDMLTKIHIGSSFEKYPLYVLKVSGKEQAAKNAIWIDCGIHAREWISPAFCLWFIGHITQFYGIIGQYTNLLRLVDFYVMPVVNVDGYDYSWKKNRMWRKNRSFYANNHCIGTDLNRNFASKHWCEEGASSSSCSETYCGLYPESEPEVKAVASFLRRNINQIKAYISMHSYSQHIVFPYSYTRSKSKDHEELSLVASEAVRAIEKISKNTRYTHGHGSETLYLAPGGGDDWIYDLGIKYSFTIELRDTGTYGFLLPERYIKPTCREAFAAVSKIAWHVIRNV
Procedure: The prepared substances were tested for TAFIa inhibition using the Actichrome plasma TAFI Activity Kit from American Diagnostica (Pr. No. 874). This entailed adding 28 μl of assay buffer (20 mM Hepes, 150 mM NaCl, pH 7.4) and 10 μl of TAFIa (American Diagnostica Pr. No. 874TAFIA; 2.5 μg/ml) to 2 μl of 2.5 mM DMSO solution of the substance and incubating in a 96 half-well microtiter plate at room temperature for 15 minutes. The enzyme reaction was started by adding 10 μl of TAFIa developer (prediluted 1:2 with assay buffer). The time course of the reaction was followed at 420 nm in a microtiter plate reader (SpectraMax plus 384; Molecular Devices) for 15 minutes.
The IC50 values were calculated from the averaged values (duplicate determination) of serial dilutions of the substance with the aid of the Softmax Pro software (version 4.8; Molecular Devices).

TAFIa [2] = molecular target: T1, TAFIa; test: TAFIa inhibition at variable preincubation times; format: biochemical; details: for behaviour of the coefficient of IC50s with increasing pre-incubation time: increasing pre-incubation time (0 to 30 min)
Procedure: The prepared substances were tested for TAFIa inhibition using the Actichrome plasma TAFI Activity Kit from American Diagnostica (Pr. No. 874). This entailed adding 28 μl of assay buffer (20 mM Hepes, 150 mM NaCl, pH 7.4) and 10 μl of TAFIa (American Diagnostica Pr. No. 874TAFIA; 2.5 μg/ml) to 2 μl of 2.5 mM DMSO solution of the substance and incubating in a 96 half-well microtiter plate at room temperature for variable pre-incubation times (0, 5, 15 and 30 minutes). The enzyme reaction was started by adding 10 μl of TAFIa developer (prediluted 1:2 with assay buffer). The time course of the reaction was followed at 420 nm in a microtiter plate reader (SpectraMax plus 384; Molecular Devices) for 15 minutes.
The IC50 values were calculated from the averaged values (duplicate determination) of serial dilutions of the substance with the aid of the Softmax Pro software (version 4.8; Molecular Devices). The coefficient of IC50 values was determined by IC50 value at 0 min over IC50 value at x minutes, wherein x can be 0, 5, 15 or 30 minutes of pre-incubation time.

[3] = example compounds, read-out: IC50

Structure (SMILES): CC(C)[C@H]1COCCCCOc2ccc(cc2)C[C@@H](NC(=O)N[C@@](C)(C[C@@H]2CC[C@@H](N)C2)C(=O)O)C(=O)N1 [Example 3, (S)-3-((1R,3R)-3-Amino-cyclopentyl)-2-[3-((9S,12R)-9-isopropyl-11-oxo-2,7-dioxa-10-aza-bicyclo[12.2.2]octadeca-1(17),14(18),15-trien-12-yl)-ureido]-2-methyl-propionic acid]
IC50 (TAFIa [1]; [3]): 1 nM

Structure (SMILES): CC(C)[C@H]1COCCCCOC[C@@H](NC(=O)N[C@@](C)(Cc2ccc(N)nc2)C(=O)O)C(=O)N1 [Example 4, (S)-3-(6-Amino-pyridin-3-yl)-2-[3-((3S,6R)-3-isopropyl-5-oxo-1,8-dioxa-4-aza-cyclododec-6-yl)-ureido]-2-methyl-propionic acid]
IC50 (TAFIa [1]; [3]): 1 nM

Second part, the molecule after the results:

IC50 (TAFIa [1]; [3]): 0.3 nM
Structure (SMILES): CC(C)[C@H]1COCCCCOc2ccc(cc2)C[C@@H](NC(=O)N[C@@](C)(Cc2ccc(N)nc2)C(=O)O)C(=O)N1 [Example 1, (S)-3-(6-Amino-pyridin-3-yl)-2-[3-((9S,12R)-9-isopropyl-11-oxo-2,7-dioxa-10-aza-bicyclo[12.2.2]octadeca-1(17),14(18),15-trien-12-yl)-ureido]-2-methyl-propionic acid]

behaviour of the coefficient of IC50s with increasing pre-incubation time (TAFIa [2]): increases | Coefficient of IC50s (IC50 value at 0 min/IC50 value at x min preincubation time) (TAFIa [2]; pre-incubation time 0 min): 1 | Coefficient of IC50s (IC50 value at 0 min/IC50 value at x min preincubation time) (TAFIa [2]; pre-incubation time 5 min): 2.9 | Coefficient of IC50s (IC50 value at 0 min/IC50 value at x min preincubation time) (TAFIa [2]; pre-incubation time 15 min): 5.8 | Coefficient of IC50s (IC50 value at 0 min/IC50 value at x min preincubation time) (TAFIa [2]; pre-incubation time 30 min): 7.7 | IC50 (TAFIa [1]; [3]): 0.3 nM
Structure (SMILES): CC(C)[C@H]1COCCCCOc2ccc(cc2)C[C@@H](NC(=O)N[C@@](C)(C[C@H]2C[C@H](N)C2)C(=O)O)C(=O)N1 [Example 2, (S)-3-trans-(3-Amino-cyclobutyl)-2-[3-((9S,12R)-9-isopropyl-11-oxo-2,7-dioxa-10-aza-bicyclo[12.2.2]octadeca-1(17),14(18),15-trien-12-yl)-ureido]-2-methyl-propionic acid]

behaviour of the coefficient of IC50s with increasing pre-incubation time (TAFIa [2]): stays nearly constant in time | Coefficient of IC50s (IC50 value at 0 min/IC50 value at x min preincubation time) (TAFIa [2]; pre-incubation time 0 min): 1 | Coefficient of IC50s (IC50 value at 0 min/IC50 value at x min preincubation time) (TAFIa [2]; pre-incubation time 5 min): 0.5 | Coefficient of IC50s (IC50 value at 0 min/IC50 value at x min preincubation time) (TAFIa [2]; pre-incubation time 15 min): 1.3 | Coefficient of IC50s (IC50 value at 0 min/IC50 value at x min preincubation time) (TAFIa [2]; pre-incubation time 30 min): 1 | IC50 (TAFIa [1]; comparison examples according to WO2009146802, read-out: IC50 of Comparison examples): 4 nM
Structure (SMILES): CC(C)[C@H]1COCCCCOc2ccc(cc2)C[C@@H](NC(=O)N[C@@H](C[C@H]2C[C@H](N)C2)C(=O)O)C(=O)N1 [reference compound]
